Legend:
[1] = target: Human immunodeficiency virus type 1 integrase (Human immunodeficiency virus 1, UniProt Q7ZJM1); experiment: Allosteric inhibition of HIV-1 integrase by ELISA based IN-DNA assembly/Strand transfer assay
[2] = test system: Human immunodeficiency virus 1; experiment: Antiviral activity against wild type HIV-1 NL4-3 infected in human MT4 cells assessed as reduction in viral replication; assay type: functional, organism-based; conditions: Human immunodeficiency virus 1, NL4-3, MT4
[3] = Metabolic stability in rat liver microsome; assay type: ADME; conditions: microsomes; also: time not given here
[4] = Metabolic stability in human liver microsome; assay type: ADME; conditions: microsomes; also: time not given here
[5] = test system: Human immunodeficiency virus 1; experiment: Antiviral activity against HIV-1 T125A infected in human MT4 cells assessed as reduction in viral replication; assay type: functional, organism-based; conditions: Human immunodeficiency virus 1, T125A
[6] = Permeability of the compound in human Caco-2 cells; assay type: ADME, cell-based; conditions: read-out: permeability
[7] = Half life in rat at 0.3 mg/kg, iv; assay type: ADME, organism-based; conditions: in vivo
[8] = Oral bioavailability in rat at 3 mg/kg; assay type: ADME, organism-based; conditions: in vivo
[9] = MRT in rat at 0.3 mg/kg, iv; assay type: ADME, organism-based; conditions: in vivo
[10] = Volume of distribution at steady state in rat at 0.3 mg/kg, iv; assay type: ADME, organism-based; conditions: in vivo, read-out: Vdss
[11] = Clearance in rat at 0.3 mg/kg, iv; assay type: ADME, organism-based; conditions: in vivo

Sequence of Human immunodeficiency virus type 1 integrase (Q7ZJM1 whole entry): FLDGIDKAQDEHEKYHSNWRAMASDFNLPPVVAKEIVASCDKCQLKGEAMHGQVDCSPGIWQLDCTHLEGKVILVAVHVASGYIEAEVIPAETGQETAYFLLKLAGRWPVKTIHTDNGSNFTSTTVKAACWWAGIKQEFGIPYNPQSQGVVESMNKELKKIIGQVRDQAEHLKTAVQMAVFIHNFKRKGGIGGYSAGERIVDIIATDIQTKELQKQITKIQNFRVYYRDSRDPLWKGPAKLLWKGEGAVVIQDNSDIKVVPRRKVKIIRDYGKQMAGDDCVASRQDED

SMILES | IC50 [1] | EC50 [2] | Stability [3] | Stability [4] | EC50 [5] | Papp [6] | half-life [7] | bioavailability [8] | MRT [9] | Vd [10] | clearance [11]
Cc1ccc(-c2c([C@H](OC(C)(C)C)C(=O)O)c(C)nc3ccccc23)cc1C | 0.012 µM | – | – | – | – | – | – | – | – | – | –
Cc1ccc2c(c1C(OC(C)(C)C)C(=O)O)[C@]1(CC[C@H](C)CC1)CC2=O (some centres undefined) | 0.49 µM | 3.2 µM | – | – | – | – | – | – | – | – | –
Cc1cc(NC(=O)CC(C)C)c2c(c1C(OC(C)(C)C)C(=O)O)[C@]1(CC2)CC[C@@H](C)CC1 (some centres undefined) | 0.0022 µM | 0.03 µM | 97% | 72% | 0.94 µM | 290 nm/s | – | – | – | – | –
Cc1cc(C(=O)NCC(C)C)c2c(c1C(OC(C)(C)C)C(=O)O)[C@]1(CC2)CC[C@@H](C)CC1 (some centres undefined) | 0.0057 µM | 0.033 µM | – | – | 3.3 µM | 150 nm/s | – | – | – | – | –
COC1C[C@]2(CC[C@@H](C)CC2)c2c1ccc(C)c2C(OC(C)(C)C)C(=O)O (some centres undefined) | 0.053 µM | 2.3 µM | – | – | – | – | – | – | – | – | –
Cc1cc(C(=O)NC(C)C)c2c(c1C(OC(C)(C)C)C(=O)O)[C@]1(CC2)CC[C@@H](C)CC1 (some centres undefined) | 0.02 µM | 0.11 µM | 96% | 99% | 2.7 µM | 130 nm/s | – | – | – | – | –
Cc1ccc2c(c1C(OC(C)(C)C)C(=O)O)[C@]1(CC[C@H](C)CC1)CC2O (some centres undefined) | 0.43 µM | 15 µM | – | – | – | – | – | – | – | – | –
CNC(=O)c1cc(C)c(C(OC(C)(C)C)C(=O)O)c2c1CC[C@]21CC[C@@H](C)CC1 (some centres undefined) | 0.16 µM | 0.56 µM | 98% | 100% | 9.9 µM | 80 nm/s | – | – | – | – | –
Cc1cc(C(=O)NC2CCCCC2)c2c(c1C(OC(C)(C)C)C(=O)O)[C@]1(CC2)CC[C@@H](C)CC1 (some centres undefined) | 0.002 µM | 0.021 µM | 99% | 94% | 0.13 µM | 240 nm/s | – | – | – | – | –
Cc1cc(C(=O)NC2CCCCC2)c2c(c1[C@@H](OC(C)(C)C)C(=O)O)[C@]1(CC2)CC[C@@H](C)CC1 | 0.0083 µM | 0.11 µM | 100% | 92% | 1.2 µM | 200 nm/s | – | – | – | – | –
Cc1cc(C(=O)NC2CCCCC2)c2c(c1[C@H](OC(C)(C)C)C(=O)O)[C@]1(CC2)CC[C@@H](C)CC1 | 0.0014 µM | 0.0074 µM | 100% | 91% | 0.12 µM | 200 nm/s | 4.2 h | 64% | 3.6 h | 0.57 L/kg | 0.16 L/h/kg
Cc1cc(C(=O)NC2CCCCCC2)c2c(c1C(OC(C)(C)C)C(=O)O)[C@]1(CC2)CC[C@@H](C)CC1 (some centres undefined) | 0.0018 µM | 0.021 µM | 87% | 83% | 0.58 µM | 300 nm/s | – | – | – | – | –
Cc1cc(C(=O)N(C)C)c2c(c1C(OC(C)(C)C)C(=O)O)[C@]1(CC2)CC[C@@H](C)CC1 (some centres undefined) | 1.8 µM | 2.6 µM | 94% | 97% | > 6 µM | 70 nm/s | – | – | – | – | –
Cc1ccc2c(c1C(OC(C)(C)C)C(=O)O)[C@]1(CC2)CC[C@@H](C)CC1 (mixture of isomers) | 0.054 µM | 5.3 µM | 51% | 57% | > 6 µM | 480 nm/s | – | – | – | – | –
Cc1ccc2c(c1C(OC(C)(C)C)C(=O)O)[C@]1(CCC2)CC[C@@H](C)CC1 (mixture of isomers) | 0.05 µM | 4 µM | – | – | – | – | – | – | – | – | –
Cc1cn([C@H]2C[C@H](N=[N+]=[N-])[C@@H](CO)O2)c(=O)[nH]c1=O [ZIDOVUDINE] | – | 0.0299 µM | – | – | 0.0389 µM | – | – | – | – | – | –

— ChEMBL document CHEMBL5584251, “Design and synthesis of novel and potent allosteric HIV-1 integrase inhibitors with a spirocyclic moiety” (Bioorg Med Chem Lett, 2024)
